From PubChem BioAssay AID328 (DTP/NCI, 2004)
Values joined by “and” are separate entries in the source; they are usually repeats but may differ in a detail not shown here. Equal entries are not always repeated. Toxic doses and inconclusive results are not listed.

Tested on: BDF1 mice, P388 leukemia ip, median survival T/C
Assay: NCI In Vivo Anticancer Drug Screen. Data for tumor model P388 Leukemia (intraperitoneal) in B6D2F1 (BDF1) mice
Conditions: endpoint: median survival time, higher = longer survival
Method in brief: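 Read-out is survival of treated animals expressed relative to the vehicle group, as a T/C ratio.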

[1] = dose: 25.0 mg/kg/injection, schedule: Q01DX009 (ip), vehicle: Klucel (hydroxypropylcellulose) (HPC)
[2] = dose: 50.0 mg/kg/injection, schedule: Q01DX009 (ip), vehicle: Klucel (hydroxypropylcellulose) (HPC)
[3] = dose: 100.0 mg/kg/injection, schedule: Q01DX009 (ip), vehicle: Klucel (hydroxypropylcellulose) (HPC)
[4] = dose: 100.0 mg/kg/injection, schedule: Q01DX009 (ip), vehicle: saline
[5] = dose: 100.0 mg/kg/injection, schedule: Q04DX003 (ip), vehicle: saline
[6] = dose: 200.0 mg/kg/injection, schedule: Q01DX009 (ip), vehicle: saline
[7] = dose: 200.0 mg/kg/injection, schedule: Q04DX003 (ip), vehicle: saline
[8] = dose: 400.0 mg/kg/injection, schedule: Q01DX009 (ip), vehicle: saline
[9] = dose: 400.0 mg/kg/injection, schedule: Q04DX003 (ip), vehicle: saline
[10] = dose: 6.25 mg/kg/injection, schedule: Q01DX009 (ip), vehicle: saline with Tween-80
[11] = dose: 100.0 mg/kg/injection, schedule: Q04DX003 (ip), vehicle: Klucel (hydroxypropylcellulose) (HPC)
[12] = dose: 200.0 mg/kg/injection, schedule: Q04DX003 (ip), vehicle: Klucel (hydroxypropylcellulose) (HPC)
[13] = dose: 400.0 mg/kg/injection, schedule: Q04DX003 (ip), vehicle: Klucel (hydroxypropylcellulose) (HPC)
[14] = dose: 25.0 mg/kg/injection, schedule: Q01DX009 (ip), vehicle: saline with Tween-80
[15] = dose: 50.0 mg/kg/injection, schedule: Q01DX009 (ip), vehicle: saline with Tween-80
[16] = dose: 100.0 mg/kg/injection, schedule: Q04DX002 (ip), vehicle: saline

Structure (SMILES): c1coc(-c2ncnc3c2Cc2ccccc2-3)c1
- T/C [1]: 100 % of control
- T/C [2]: 118 % of control
- T/C [3]: 109 % of control
- T/C (dose: 150.0 mg/kg/injection, schedule: Q01DX009 (ip), vehicle: Klucel (hydroxypropylcellulose) (HPC)): 91 % of control

Structure (SMILES): O/N=c1/cc(-c2ccc(Cl)cc2)ss1
- T/C (dose: 25.0 mg/kg/injection, schedule: Q01DX009 (ip), vehicle: saline): 114 % of control
- T/C (dose: 50.0 mg/kg/injection, schedule: Q04DX003 (ip), vehicle: saline): 100 % of control and 113 % of control
- T/C [4]: 106 % of control
- T/C [5]: 93 % of control and 106 % of control and 110 % of control
- T/C [6]: 92 % of control
- T/C [7]: 96 % of control and 102 % of control
- T/C [8]: 96 % of control
- T/C [9]: 102 % of control
- T/C (dose: 600.0 mg/kg/injection, schedule: Q04DX003 (ip), vehicle: saline): 90 % of control

Structure (SMILES): C[C@]12CC[C@@H]3c4ccc(Oc5nc(N6CC6)nc(N6CC6)n5)cc4CC[C@H]3[C@@H]1CCC2=O
- T/C (dose: 3.12 mg/kg/injection, schedule: Q01DX009 (ip), vehicle: saline with Tween-80): 91 % of control
- T/C [10]: 100 % of control

Structure (SMILES): O=C(OCC#CC#CCOC(=O)c1ccccc1)c1ccccc1
- T/C [3]: 104 % of control
- T/C [11]: 100 % of control
- T/C (dose: 200.0 mg/kg/injection, schedule: Q01DX009 (ip), vehicle: Klucel (hydroxypropylcellulose) (HPC)): 113 % of control
- T/C [12]: 90 % of control
- T/C (dose: 400.0 mg/kg/injection, schedule: Q01DX009 (ip), vehicle: Klucel (hydroxypropylcellulose) (HPC)): 104 % of control
- T/C [13]: 109 % of control

Structure (SMILES): C1CC2CCC1CNC2
- T/C [14]: 95 % of control
- T/C [15]: 100 % of control
- T/C (dose: 100.0 mg/kg/injection, schedule: Q01DX009 (ip), vehicle: saline with Tween-80): 100 % of control

Structure (SMILES): c1ccc2c3csc4ccccc4c-3nc2c1
- T/C (dose: 1.56 mg/kg/injection, schedule: Q04DX003 (ip), vehicle: Klucel (hydroxypropylcellulose) (HPC)): 95 % of control
- T/C (dose: 3.12 mg/kg/injection, schedule: Q04DX003 (ip), vehicle: Klucel (hydroxypropylcellulose) (HPC)): 95 % of control
- T/C (dose: 5.7 mg/kg/injection, schedule: Q01DX009 (ip), vehicle: Klucel (hydroxypropylcellulose) (HPC)): 92 % of control and 113 % of control
- T/C (dose: 6.25 mg/kg/injection, schedule: Q04DX003 (ip), vehicle: Klucel (hydroxypropylcellulose) (HPC)): 104 % of control
- T/C (dose: 8.75 mg/kg/injection, schedule: Q01DX009 (ip), vehicle: Klucel (hydroxypropylcellulose) (HPC)): 88 % of control and 118 % of control
- T/C (dose: 12.5 mg/kg/injection, schedule: Q04DX003 (ip), vehicle: Klucel (hydroxypropylcellulose) (HPC)): 104 % of control
- T/C (dose: 13.0 mg/kg/injection, schedule: Q01DX009 (ip), vehicle: Klucel (hydroxypropylcellulose) (HPC)): 92 % of control and 113 % of control

Structure (SMILES): CCCCCCCCCC(O)CCCCCCCCC
- T/C (dose: 100.0 mg/kg/injection, schedule: Q01DX009 (ip), vehicle: other): 100 % of control
- T/C (dose: 200.0 mg/kg/injection, schedule: Q01DX009 (ip), vehicle: other): 95 % of control
- T/C (dose: 400.0 mg/kg/injection, schedule: Q01DX009 (ip), vehicle: other): 110 % of control

Structure (SMILES): COC(=O)C(N)CSC (stereo unspecified)
- T/C [4]: 103 % of control
- T/C [5]: 113 % of control
- T/C [6]: 106 % of control
- T/C [7]: 90 % of control
- T/C [8]: 106 % of control
- T/C [9]: 104 % of control

Structure (SMILES): COc1cc2c(cc1OC)-c1ccc3cc4c(cc3c1N(C)C2)OCO4
- T/C (dose: 10.0 mg/kg/injection, schedule: Q01DX009 (ip), vehicle: other): 123 % of control
- T/C (dose: 40.0 mg/kg/injection, schedule: Q01DX009 (ip), vehicle: other): 155 % of control

Structure (SMILES): CC[C@H](/C=C/[C@@H](C)[C@H]1CC[C@H]2[C@@H]3CC=C4C[C@@H](OC(=O)/C=C\C(=O)O)CC[C@]4(C)[C@H]3CC[C@]12C)C(C)C
- T/C (dose: 6.25 mg/kg/injection, schedule: Q01DX009 (ip), vehicle: other): 120 % of control
- T/C (dose: 12.5 mg/kg/injection, schedule: Q01DX009 (ip), vehicle: other): 105 % of control
- T/C (dose: 18.75 mg/kg/injection, schedule: Q04DX003 (ip), vehicle: other): 100 % of control
- T/C (dose: 25.0 mg/kg/injection, schedule: Q01DX009 (ip), vehicle: other): 100 % of control
- T/C (dose: 37.5 mg/kg/injection, schedule: Q04DX003 (ip), vehicle: other): 95 % of control
- T/C (dose: 75.0 mg/kg/injection, schedule: Q04DX003 (ip), vehicle: other): 104 % of control

Structure (SMILES): CC(=O)N(C)c1ccc(Nc2cc(C)[nH]c3ccc4ncnc4c23)cc1
- T/C (dose: 50.0 mg/kg/injection, schedule: Q04DX002 (ip), vehicle: saline): 158 % of control
- T/C (dose: 100.0 mg/kg/injection, schedule: Q04DX002 (ip), vehicle: saline with Tween-80): 181 % of control
- T/C [16]: 181 % of control

Structure (SMILES): CN(C)C=C1C(=O)N(C)C(=O)N(C)C1=O
- T/C [16]: 101 % of control
- T/C (dose: 200.0 mg/kg/injection, schedule: Q04DX002 (ip), vehicle: saline): 108 % of control
- T/C (dose: 400.0 mg/kg/injection, schedule: Q04DX002 (ip), vehicle: saline): 112 % of control

Structure (SMILES): CC[C@H](CC[C@@H](C)[C@H]1CC[C@H]2[C@@H]3CC[C@H]4C[C@@H](O)CC[C@]4(C)[C@H]3CC[C@]12C)C(C)C
- T/C (dose: 100.0 mg/kg/injection, schedule: Q04DX003 (ip), vehicle: saline with Tween-80): 100 % of control
- T/C (dose: 200.0 mg/kg/injection, schedule: Q01DX009 (ip), vehicle: saline with Tween-80): 95 % of control
- T/C (dose: 400.0 mg/kg/injection, schedule: Q01DX009 (ip), vehicle: saline with Tween-80): 100 % of control
- T/C (dose: 400.0 mg/kg/injection, schedule: Q04DX003 (ip), vehicle: saline with Tween-80): 86 % of control

Structure (SMILES): Nc1ccccc1-c1ccccc1N
- T/C [11]: 100 % of control
- T/C [12]: 90 % of control

Structure (SMILES): CCOC(=O)C(N=C=S)C(C)CC (stereo unspecified)
- T/C (dose: 100.0 mg/kg/injection, schedule: Q01DX001 (ip), vehicle: saline with Tween-80): 115 % of control
- T/C (dose: 200.0 mg/kg/injection, schedule: Q01DX001 (ip), vehicle: saline with Tween-80): 107 % of control
- T/C (dose: 400.0 mg/kg/injection, schedule: Q01DX001 (ip), vehicle: saline with Tween-80): 118 % of control

Structure (SMILES): CCCCCCCS(=O)CCCCCCC
- T/C [10]: 102 % of control
- T/C (dose: 12.5 mg/kg/injection, schedule: Q01DX009 (ip), vehicle: saline with Tween-80): 104 % of control
- T/C [14]: 95 % of control
- T/C [15]: 104 % of control

Structure (SMILES): COc1cc2cc(c1Cl)NC(=O)CC(OC(=O)C(C)N(C)C(=O)C1(C)CC1C)C1(C)OC1C(C)C1CC(O)(NC(=O)O1)C(OC)C=C/C=C(\C)C2 (stereo unspecified)
- T/C (dose: 0.1 micrograms/kg/injection, schedule: Q01DX009 (ip), vehicle: saline + alcohol): 115 % of control
- T/C (dose: 0.2 micrograms/kg/injection, schedule: Q01DX009 (ip), vehicle: saline + alcohol): 165 % of control
- T/C (dose: 0.4 micrograms/kg/injection, schedule: Q01DX009 (ip), vehicle: saline + alcohol): 165 % of control
- T/C (dose: 0.8 micrograms/kg/injection, schedule: Q01DX009 (ip), vehicle: saline + alcohol): 155 % of control
- T/C (dose: 1.6 micrograms/kg/injection, schedule: Q01DX009 (ip), vehicle: saline + alcohol): 167 % of control and 175 % of control
- T/C (dose: 3.1 micrograms/kg/injection, schedule: Q01DX009 (ip), vehicle: saline + alcohol): 184 % of control and 190 % of control
- T/C (dose: 6.2 micrograms/kg/injection, schedule: Q01DX009 (ip), vehicle: saline + alcohol): 233 % of control and 300 % of control
- T/C (dose: 12.5 micrograms/kg/injection, schedule: Q01DX009 (ip), vehicle: saline + alcohol): 184 % of control and 200 % of control
- T/C (dose: 25.0 micrograms/kg/injection, schedule: Q01DX009 (ip), vehicle: saline + alcohol): 87 % of control and 90 % of control

Structure (SMILES): Cc1ccc(S(=O)(=O)N=S2CCCC2)cc1
- T/C [11]: 100 % of control
- T/C [12]: 95 % of control
- T/C [13]: 100 % of control

Structure (SMILES): O=C(Cl)C1CC2c3ccccc3C1([N+](=O)[O-])c1ccccc12 (stereo unspecified)
- T/C [11]: 104 % of control
- T/C [12]: 100 % of control
- T/C [13]: 113 % of control

Structure (SMILES): O=C(O)CCCCc1ccc(CCCCC(=O)O)cc1
- T/C [1]: 104 % of control
- T/C [2]: 104 % of control
- T/C [3]: 90 % of control
- T/C (dose: 150.0 mg/kg/injection, schedule: Q04DX003 (ip), vehicle: Klucel (hydroxypropylcellulose) (HPC)): 120 % of control
